{
  "source": "patent US5912270A",
  "about": "“Anti-inflammatory compounds” (SmithKline Beecham Corporation, priority 1996, dated 1999)",
  "key": {"[1]": {"tested_on": "CoA-IT", "experiment": "Assay (b): microsomal CoA-IT activity assay", "format": "biochemical, human", "details": "U937 microsomes", "text": "The following is a method to measure CoA-IT activity and the effects of compounds on CoA-IT activity. The assay is based upon mixing cellular material containing CoA-IT activity with a stable lyso phospholipid such as […] and measuring the production of phospholipid product such as […] occurring in the absence of added CoA or CoA-fatty acids.\nAny inflammatory cell that contains high levels of CoA-IT activity can be used, such as neutrophils, macrophages or cell lines such as U937 cells. […] Cells were grown without differentiation (basal state) by any agent, such as dimethyl sulfoxide. As used herein, \"inflammatory cells\" include, but are not limited to neutrophils, macrophages, monocytes, lymphocytes, eosinophils, basophils, and mast cells.\nMicrosomes were prepared using standard techniques. In this case, cells were washed with a buffer of 250 mM sucrose, 10 mM Tris, 1 mM EGTA, 1 mM MgCl2, pH 7.4 and ruptured by N2 cavitation (750 psi, 10 minutes). The ruptured cells were centrifuged 1000×g, 5 minutes. The resulting supernatant was centrifuged at 20,000×g,~20 minutes. Microsomes were prepared from this supernatant by centrifugation at 100,000×g, 60 minutes. The resulting pellet was washed once with assay buffer (150 mM NaCl, 10 mM Na2 KPO4, 1 mM EGTA, pH 7.4), recentrifuged and the pellet resuspended in assay buffer (4-20 mg protein/ml) and was stored at -80° C. until assayed.\nCoA-IT activity was measured in 1.5 ml centrifuge tubes in a total volume of 100 ul. Microsomes were diluted in assay buffer to the desired protein concentration (6-20 ug/tube). The reaction was initiated by addition of [3H ]1-alkyl-2-lyso-sn-glycero-3-phosphocholine (GPC) (~0.1 uCi/tube) and 1 μM final cold 1-alkyl-2-lyso-GPC in assay buffer with 0.25 mg/ml fatty acid-poor bovine serumalbumin (BSA) (Calbiochem, La Jolla, Calif.). [3H]1-2-alkyl-2-lyso-GPC, approximately 50 Ci/mmol, was from NEN-Dupont (Boston, Mass.) and cold 1-alkyl-2-lyso-GPC was from Biomol (Plymouth Meeting, Pa). Microsomes were pretreated with desired agents for the desired time (10 minutes) before the addition of [3H]1-alkyl-2-lyso-GPC. The reaction was run for the desired time (10 minutes) at 37° C. The reaction was stopped and the lipids extracted by addition of 100 ul of chloroform:methanol (1:2, v/v) followed by 100 ul of chloroform and 100 ul of 1M KCI. The samples were vortexed and centrifuged at high speed in a microfuge for 2-3 minutes. An aliquot of the chloroform-extracted materials were separated, usually by TLC in chloroform/methanol/acetic acid/water (50:25:8:4, v/v), visualized by radioscanning (Bioscan) and the product, [3H] 1-alkyl-2-acyl-GPC, was scraped and quantified by liquid scintillation spectroscopy. […] Other methods can be used to separate substrate from product, including but not limited to column chromatography, affinity chromatography and post reaction derivitization."}, "[2]": {"tested_on": "TPA-induced Mouse Ear Inflammation", "experiment": "Assay (g): TPA-induced Mouse Ear Inflammation (edema and MPO)", "format": "in vivo", "details": "for TPA % change in edema / change in MPO for TPA model / MPO ED50 / edema ED50: topical; for TPA % change in edema / change in MPO for TPA model: doses of 0.2, 0.1 and 0.3 for dexamethasone, scalaradial, WY 50,295 respectively; for MPO ED50 / edema ED50: TPA ear model", "description": "(§1) Male Balb/c inbred mice were obtained from Charle River Breeding Laboratories (Kingston, N.Y.). Within a single experiment mice (22-25 g) were age-matched. These in vivo experiments typically involved use of 5-6 animals/group.\nTPA (12-0-tetradecanoylphorbol 13-acetate) (Sigma Chemical Company) in acetone (4 mg/20 ml) was applied to the inner and outer surfaces of the left ear of BALB/c male mice. The thickness of both ears was then measured with a dial micrometer (Mitutoyo, Japan) at both 2 and 4 hours after treatment, and the data expressed as the change in thickness (10^-3 cm) between treated and untreated ears. […] After measuring the edema, the inflammed left ears were removed and stored at -70° C. until they were assayed for MPO (myeloperoxidase) activity where appropriate.\nOn the day of the assay, partially thawed ear tissues were minced and then homogenized (10% w/v) with a Tissumizer homogenizer (Tekmar Co.) in 50 mM phosphate buffer (pH 6) containing 0.5% HTAB. The tissue homogenates were taken through three cycles of freeze-thaw, followed by brief sonication (10 sec). The method of Bradley et al. was used with modifications as described. […] Supernatant MPO activity was quantified kinetically (change in absorbance measured over 3 min, sampled at 15-sec intervals) using a Beckman DU-7 spectrophotometer and a Kinetics Analysis package (Beckman Instruments, Inc.). One unit of MPO activity is defined as that degrading one micromole of peroxide per minute at 25° C.\nStatistical analysis was done using Student's \"t\" test."}, "[3]": {"tested_on": "Arachidonic acid induced ear inflammation", "experiment": "Assay (h): Arachidonic acid induced ear inflammation assay", "format": "in vivo, mouse", "details": "for AA % change in edema / change in MPO for AA: topical, doses of 0.2, 0.1 and 0.3 for dexamethasone, scalaradial, WY 50,295 respectively; for activity in the AA ear model: @ 1 mg", "description": "as §1\nArachidonic acid is dissolved in acetone ([…]) to the left ear of BALB/c male mice. The thickness of both ears was measured with a constant pressure thickness guage 1 hour after treatment and the data expressed as the change in thickness between treated and untreated ears. Test compounds or vehicle are given at the time of AA applciation. The inflammatory cell infiltration is measured by MPO activity as described above in the TPA ear edema assay. After the edema measurements are made, the inflamed ears are removed and assayed for MPO activity."}, "[4]": {"tested_on": "human Monocytes", "experiment": "Assay (f): stimulated eicosanoid release by human monocytes", "format": "cell-based", "details": "Monocyte", "description": "Human Monocyte Isolation. Leukocyte-rich leukopaks obtained from Biological Specialties (Lansdale, Pa.) were collected from male volunteers who were not talking antiinflammatory drugs. Leukopaks were centrifuged (90×g for 15 min) twice to remove the platelet-rich plasma. The cell pellet was washed by centrifugation and resuspended in HBSS without Ca^2+ or Mg^2+. Histopaque 1077 was layered under the cell suspension and centrifuged at 400×g for 30 min to obtain the buffy coat. The interfacial buffy coat, containing monocytes and lymphocytes, was removed and saved. The buffy coat was washed twice with HBSS without Ca^2+ or Mg^2+ by centrifugation. […]\nMeasurement of Stimuli-Induced Eicosanoid Release. […] (A23187, 1 μM,(15 min). The reaction was terminated by reduction of pH through addition of citric acid and centrifugation (10 min, 400×g, 4° C.). Cell viability was monitored before and after experiments using trypan blue exclusion. The cell-free media was decanted and stored at -70° C. until analyzed. Prostaglandin E2 and LTC4 were directly measured in cell-free media using enzyme immunoassay (EIA) kits purchased from Caymen Chemical Co. (Ann Arbor, Mich.). Sample or standard dilutions were made with appropriate media and analyzed in triplicate. Results were obtained by extrapolation from a standard curve prepared in the media and expressed as pg or ng/ml of sample."}},
  "note": "Counter-ions that a name gives are not always drawn. Like-named read-outs stand apart in the source and are kept apart here.",
  "data": [
    {"smiles": "COc1cccc2c1cc([N+](=O)[O-])c1c(C(=O)O)cc3c(c12)OCO3", "note": "[aristolochic acid]", "values": [
      {"measurement": "effect on CoA-IT activity", "setting": "[1]; at concentrations up to 500 μM", "value": "no effect"}
    ]},
    {"smiles": "CC(C(=O)O)c1ccc2cc(OCc3ccc4ccccc4n3)ccc2c1", "note": "(centres unmarked) [WY 50,295]", "values": [
      {"measurement": "TPA % change in edema", "setting": "[2]", "value": -18, "unit": "%"},
      {"measurement": "change in MPO for TPA model", "setting": "[2]", "value": -36},
      {"measurement": "AA % change in edema", "setting": "[3]", "value": -50, "unit": "%"},
      {"measurement": "change in MPO for AA", "setting": "[3]", "value": -90}
    ]},
    {"smiles": "CCC(C)(C)c1ccc(Oc2ccc(C(F)(F)F)cc2NC(=O)Nc2ccc(Cl)c(C(F)(F)F)c2)c(S(=O)(=O)O)c1", "note": "[Example 3, 2-[2-[3-(4-Chloro-3-trifluoromethylphenyl)ureido]-4-trifluoromethylphenoxy]-5-(1,1-dimethylpropyl)benzenesulfonic acid, sodium salt]", "values": [
      {"measurement": "MPO ED50", "setting": "[2]", "value": 0.36, "unit": "mg/ear"},
      {"measurement": "edema ED50", "setting": "[2]", "value": 0.32, "unit": "mg/ear"},
      {"measurement": "activity in the AA ear model", "setting": "[3]", "value": -22}
    ]},
    {"smiles": "O=S1(=O)CCn2c1nc(-c1ccc(F)cc1)c2-c1ccncc1", "note": "[6-(4'-Fluorophenyl)-5-(4-pyridyl)2,3-dihydroimidzo-[2,1-b]thiazole-dioxide]", "values": [
      {"measurement": "effect on CoA-IT activity", "setting": "[1]; at concentrations up to 100 μM", "value": "no effect"}
    ]},
    {"smiles": "CCN(CC)CCCC(C)Nc1c2ccc(Cl)cc2nc2ccc(OC)cc12", "note": "(centres unmarked) [quinacrine]", "values": [
      {"measurement": "effect on CoA-IT activity", "setting": "[1]; at concentrations up to 500 μM", "value": "no effect"}
    ]},
    {"smiles": "CCC(C)(C)c1ccc(Oc2ccc(C(F)(F)F)cc2NC(=O)Nc2cc(C(F)(F)F)cc(C(F)(F)F)c2)c(S(=O)(=O)O)c1", "note": "[Example 2, 2-[2-[3-[3,5-Bis(trifluoromethyl)phenyl]ureido]-4-trifluoromethylphenoxy]5-(1,1-dimethylpropyl)benzenesulfonic acid, sodium salt]", "values": [
      {"measurement": "IC50", "setting": "[4]; LTC4 release, A23187, read-out: LTC4 (as an IC50)", "value": 1000, "unit": "nM"},
      {"measurement": "IC50", "setting": "[4]; PGE2 release, A23187, read-out: PGE2 (as an IC50)", "value": "> 10000", "unit": "nM"},
      {"measurement": "MPO ED50", "setting": "[2]", "value": 0.25, "unit": "mg/ear"},
      {"measurement": "edema ED50", "setting": "[2]", "value": 0.87, "unit": "mg/ear"},
      {"measurement": "inhibition in these animal models", "setting": "[2]; mouse ear inflammation models (TPA and AA)", "value": "positive inhibition"},
      {"measurement": "activity in the AA ear model", "setting": "[3]", "value": -25}
    ]},
    {"smiles": "COc1ccc2cc([C@H](C)C(=O)O)ccc2c1", "note": "[naproxen]", "values": [
      {"measurement": "effect on CoA-IT activity", "setting": "[1]; at concentrations up to 100 μM", "value": "no effect"}
    ]},
    {"smiles": "Fc1ccc(-c2nc3n(c2-c2ccncc2)CCS3)cc1", "note": "[6-(4'-Fluorophenyl)-5-(4pyridyl)-2,3-dihydroimidzo-[2,1-b]thiazole]", "values": [
      {"measurement": "effect on CoA-IT activity", "setting": "[1]; at concentrations up to 100 μM", "value": "no effect"}
    ]},
    {"smiles": "Cc1cc(C(C)(C)C)c(O)c(C(C)(C)C)c1", "note": "[BHT]", "values": [
      {"measurement": "effect on CoA-IT activity", "setting": "[1]; at concentrations up to 100 μM", "value": "no effect"}
    ]},
    {"smiles": "C[C@@H]1C[C@H]2[C@@H]3CCC4=CC(=O)C=C[C@]4(C)[C@@]3(F)[C@@H](O)C[C@]2(C)[C@@]1(O)C(=O)CO", "note": "[dexamethasone]", "values": [
      {"measurement": "TPA % change in edema", "setting": "[2]", "value": -50, "unit": "%"},
      {"measurement": "change in MPO for TPA model", "setting": "[2]", "value": -54},
      {"measurement": "AA % change in edema", "setting": "[3]", "value": -10, "unit": "%"},
      {"measurement": "change in MPO for AA", "setting": "[3]", "value": 0}
    ]},
    {"smiles": "CC(=O)O[C@H]1C[C@@H]2[C@@]3(C)CCCC(C)(C)[C@@H]3CC[C@@]2(C)[C@@H]2CC=C(C=O)[C@H](C=O)[C@@]12C", "note": "[scalaradial]", "values": [
      {"measurement": "TPA % change in edema", "setting": "[2]", "value": -46, "unit": "%"},
      {"measurement": "change in MPO for TPA model", "setting": "[2]", "value": -65},
      {"measurement": "AA % change in edema", "setting": "[3]", "value": -11, "unit": "%"},
      {"measurement": "change in MPO for AA", "setting": "[3]", "value": -33}
    ]},
    {"smiles": "COc1ccc2c(c1)c(CC(=O)O)c(C)n2C(=O)c1ccc(Cl)cc1", "note": "[indomethicin]", "values": [
      {"measurement": "effect on CoA-IT activity", "setting": "[1]; at concentrations up to 100 μM", "value": "no effect"}
    ]},
    {"smiles": "CN(C)CCC=C1c2ccccc2COc2ccccc21", "note": "[Doxepine]", "values": [
      {"measurement": "effect on CoA-IT activity", "setting": "[1]; at concentrations up to 100 μM", "value": "did not inhibit"}
    ]}
  ]
}
